# Patent US20030228675A1, “ATM related kinase ATX, nucleic acids encoding same and methods of use” (priority 2002, published 2003)
# Columns and labels:
# U2OS cells = assay: Clonogenic survival assay of oligonucleotide-transfected cells; type: cell-based, human
# Protocol: To address concerns related to potential non-specific effects of ATXKI expression on cellular functions, an antisense oligonucleotide-based approach to reduce the level of ATX expression in U2OS cells was developed. The cells were mock transfected, or transfected with sense (S) or antisense (AS) oligonucleotides, and then treated for 24 h with various genotoxic agents. The cells were then trypsinized and replated, and clonogenic survival was analyzed after 10 days in culture. The results obtained with AS-treated cells were strikingly similar to those obtained with the ATXKI-expressing cells (FIGS. 2A-C). While transfection of U2OS cells with the S oligonucleotide reduced the basal level of colony outgrowth by 25%, treatment with the AS oligonucleotide decreased basal clonogenic activity by 75% (FIG. 2C, right panel). […] The reduction in ATX protein caused by AS treatment ranged from 50-90% in over 10 independent trials.
# To prepare recombinant HA-tagged ATX and ATM proteins, HEK 293T cells were plated onto 60-mm dishes (9×10^5 cells per dish), and were transfected with 5 μg pcDNA3.1 (empty vector), HA-ATXWT, HA-ATXKI, or HA-ATMWT plasmid DNAS. Transfections were performed with the Fugene 6 transfection reagent (Roche), according to the manufacturer's instructions. For NMD assays (see Example 9, below), U2OS cells were seeded onto 100 mm dishes (1×10^6 cells per dish). […]
# U2OS cells were seeded into 60 mm dishes (1×10^5 cells per dish) in complete medium. […] To quantitate the outgrowth of drug-resistant cells, the Coomassie Blue-bound protein was solubilized at 37° C. with 0.1 M NaOH, and the soluble material was analyzed by absorbance spectroscopy at a wavelength of 590 nm. […] Drug-resistant colonies were stained with Coomassie Blue after 10 days in culture, and the samples were analyzed with Image Pro Plus software to quantitate cell density. […]
# p53 = assay: Stress-induced p53 Ser-15 phosphorylation and p53 accumulation by immunoblotting; type: cell-based, human
# Protocol: To prepare recombinant HA-tagged ATX and ATM proteins, HEK 293T cells were plated onto 60-mm dishes (9×10^5 cells per dish), and were transfected with 5 μg pcDNA3.1 (empty vector), HA-ATXWT, HA-ATXKI, or HA-ATMWT plasmid DNAS. Transfections were performed with the Fugene 6 transfection reagent (Roche), according to the manufacturer's instructions. For NMD assays (see Example 9, below), U2OS cells were seeded onto 100 mm dishes (1×10^6 cells per dish). After 20 h, cells were transfected with 1.5 μg of pmCMV-Gl test plasmid, either Norm or 39Ter (Ishigaki et al., 2001); 1.5 μg of phCMV-MUP reference plasmid (Ishigaki et al., Cell 106:607-617 (2001)); and 7 μg of empty plasmid (pcDNA 3.1), plasmids encoding HA-ATMWT, HA-ATMKI, HA-ATXWT or HA-ATXKI. For antisense transfection experiments, U2OS cells were seeded onto 60 mm dishes (1×10^5 cells per dish) in complete medium supplemented with penicillin/streptomycin. After 30 h, cells were either mock transfected or transfected with sense (S) or antisense (AS) phosphorothioate oligonucleotides (Genset Oligos, La Jolla, Calif.). The S oligonucleotide spans ATX nucleotides 210-229 (5′-[…]-3′), and the AS oligonucleotide is complementary to this sequence (5′-[…]-3′). The cells were transfected with oligonucleotides at final concentrations of 8 μg/ml, with Fugene 6:DNA ratio of 1.6:1. Forty-eight hours after transfection, dishes were exposed to IR, UV-B, or 5-FU, and then harvested for immunoblotting, cell-cycle distribution, or cell survival assays. To examine ATX protein levels in oligonucleotide-treated cells, whole cell extracts were resolved by SDS-PAGE and immunoblotted with α-ATX Ab-1. When oligonucleotide-transfected cells were used for NMD assays, U2OS cells were seeded in culture dishes as described above. The cells were transfected using the Fugene reagent, with 1.5 μg of pmCMV-Gl test plasmid, 0.7 μg of phCMV-MUP reference plasmid, and 24 μg of S or AS oligonucleotide.
# A major mediator of stress-induced signaling in mammalian cells is the tumor suppressor protein, p53 (Ko and Prives, Genes and Development 10:1054-1072, (1996); Ryan et al., Curr. Opin. Cell Biol. 13:332-337 (2001)). ATX phosphorylates p53 on Ser-15 (FIG. 1C), a site implicated in the regulation of p53 stability and transcriptional activity (Dumaz and Meek, Curr. Opin. Cell Biol. 13:225-231 (1999); Zhang and Xiong, Science 292:1910-1915 (2001)). Therefore, the possibility that these two proteins are functionally linked during cellular stress responses was investigated. U2OS cells were transiently transfected with a HA-ATXWT or HA-ATXKI expression plasmid, together with a GFP-encoding plasmid to allow for FACS-based enrichment of the transfected cells. The GFP+ cells were then examined for IR-induced stabilization of p53, as well as for specific phosphorylation of this protein on Ser-15. […] In contrast, overexpression of ATXWT enhanced both of these responses in cells exposed to IR.
# The recognition of UV light-induced DNA damage occurs primarily during S phase, when pyrimidine dimers and other bulky lesions interfere with replication fork progression (Friedberg, DNA Repair and Mutagenesis (Washington, D.C., ASM Press) (1995); Lindahl and Wood, Cell 103:1121-1131 (1999)).
# In order to further define the potential linkage between DNA replicational stress and ATX, the response of AS-treated cells to 5-fluorouracil (5-FU), an S-phase specific cytotoxic agent was examined (Danenberg et al., Seminars in Oncology 26:621-631 (1999); Grem, Investigational New Drugs 18:299-313 (2000)).
# Changes in phosphorylation at Ser-15 are typically accompanied by alterations in the expression of the p53 protein, which complicates the interpretation of results obtained by immunoblotting of whole cell extracts with phospho-Ser-15-specific antibodies. […]
substance,measurement,setting,value
"5′-AGCAAGCTCCCTCCTGTCTC-3′ (all phosphorothioate, sugars by position and methylation of C not given here) [AS oligonucleotide, ATX antisense phosphorothioate oligonucleotide complementary to ATX nucleotides 210-229]",sensitivity to suppressive effects of IR and UV on clonogenic survival,U2OS cells; IR and UV treatments,significantly more sensitive
same,decrease of basal level of colony outgrowth (basal clonogenic activity),"U2OS cells; non-irradiated, 10 days in culture",75%
same,stoichiometric increase in Ser-15 phosphorylation (phospho-Ser-15 to total p53) triggered by UV,"p53; U2OS pretreated with proteasome inhibitor LLnV, UV",effectively blocked
same,level of p53 induction by 5-FU,"p53; U2OS, 5-FU exposure, versus S-treated cells",identical to that observed in their S-treated counterparts
same,phosphorylation and stabilization of p53 induced by IR exposure,"p53; U2OS, IR",reduced both the phosphorylation and stabilization of p53
same,Ser-15 phosphorylation and p53 protein accumulation in UV-damaged cells,"p53; U2OS, UV",severely impaired both Ser-15 phosphorylation and p53 protein accumulation
